Assay results published in ChEMBL document CHEMBL1123843, “Anticoagulant peptides: nature of the interaction of the C-terminal region of hirudin with a noncatalytic binding site on thrombin” (J Med Chem, 1987).
pIC50: −log10 of the molar value. Square brackets hold non-standard residues; d marks the D form. Peptide text beside a SMILES is read from it. sY = N[C@@H](Cc1ccc(OS(=O)(=O)O)cc1)C(=O)O; Sar = CNCC(=O)O

Key:
Prothrombin (Bos taurus) = Prothrombin (Bos taurus) (UniProt P00735); experiment: Relative potency for fibrin clot inhibition compared to hirudin55-65.; type: functional; design: unit not given here
Prothrombin = Prothrombin (Bos taurus, UniProt P00735); experiment: Inhibition of plasma fibrin clot formation by thrombin in vitro.; type: functional, cell-free

Row | SMILES | Relative potency (Prothrombin (Bos taurus)) | pIC50 (Prothrombin)
1 | CC[C@H](C)[C@H](NC(=O)[C@H](CCC(=O)O)NC(=O)[C@H](CCC(=O)O)NC(=O)[C@H](Cc1ccccc1)NC(=O)[C@@H](N)CC(=O)O)C(=O)N1CCC[C@H]1C(=O)N[C@@H](CCC(=O)O)C(=O)N[C@@H](CCC(=O)O)C(=O)N[C@@H](CCC(=O)O)C(=O)N[C@@H](CC(C)C)C(=O)N[C@@H](C)C(=O)O (H-DFEEIPEEELA-OH) | 12 | 4.23
2 | CC[C@H](C)[C@H](NC(=O)[C@H](CCC(=O)O)NC(=O)[C@H](C)NC(=O)[C@H](Cc1ccccc1)NC(=O)[C@@H](N)CC(=O)O)C(=O)N1CCC[C@H]1C(=O)N[C@@H](CCC(=O)O)C(=O)N[C@@H](CCC(=O)O)C(=O)N[C@@H](Cc1ccc(OS(=O)(=O)O)cc1)C(=O)N[C@@H](CC(C)C)C(=O)N[C@@H](CCC(N)=O)C(=O)O (H-DFAEIPEE[sY]LQ-OH) | < 3 | < 3.70
3 | CC[C@H](C)[C@H](NC(=O)[C@H](CCC(=O)O)NC(=O)[C@H](CCC(=O)O)NC(=O)[C@H](Cc1ccccc1)NC(=O)[C@@H](N)CC(=O)O)C(=O)N1CCC[C@H]1C(=O)N[C@@H](CCC(=O)O)C(=O)N[C@@H](C)C(=O)N[C@@H](Cc1ccc(OS(=O)(=O)O)cc1)C(=O)N[C@@H](CC(C)C)C(=O)N[C@@H](CCC(N)=O)C(=O)O (H-DFEEIPEA[sY]LQ-OH) | 17 | 4.37
4 | CC(C)C[C@H](NC(=O)[C@H](Cc1ccc(OS(=O)(=O)O)cc1)NC(=O)[C@H](CCC(=O)O)NC(=O)[C@H](CCC(=O)O)NC(=O)[C@@H]1CCCN1C(=O)[C@H](C)NC(=O)[C@H](CCC(=O)O)NC(=O)[C@H](CCC(=O)O)NC(=O)[C@H](Cc1ccccc1)NC(=O)[C@@H](N)CC(=O)O)C(=O)N[C@@H](CCC(N)=O)C(=O)O (H-DFEEAPEE[sY]LQ-OH) | < 3 | < 3.70
5 | CC[C@H](C)[C@H](NC(=O)[C@H](CCC(=O)O)NC(=O)[C@H](CCC(=O)O)NC(=O)[C@H](Cc1ccccc1)NC(=O)[C@@H](N)CC(=O)O)C(=O)N[C@@H](C)C(=O)N[C@@H](CCC(=O)O)C(=O)N[C@@H](CCC(=O)O)C(=O)N[C@@H](Cc1ccc(OS(=O)(=O)O)cc1)C(=O)N[C@@H](CC(C)C)C(=O)N[C@@H](CCC(N)=O)C(=O)O (H-DFEEIAEE[sY]LQ-OH) | < 3 | < 3.70
6 | CC[C@H](C)[C@H](NC(=O)[C@H](CCC(=O)O)NC(=O)[C@H](CCC(=O)O)NC(=O)[C@H](CCC(=O)O)NC(=O)[C@@H](N)CC(=O)O)C(=O)N1CCC[C@H]1C(=O)N[C@@H](CCC(=O)O)C(=O)N[C@@H](CCC(=O)O)C(=O)N[C@@H](Cc1ccc(OS(=O)(=O)O)cc1)C(=O)N[C@@H](CC(C)C)C(=O)N[C@@H](CCC(N)=O)C(=O)O (H-DEEEIPEE[sY]LQ-OH) | < 2 | < 3.70
7 | CC(C)CC(NC(=O)[C@H](Cc1ccc(OS(=O)(=O)O)cc1)NC(=O)[C@H](CCC(=O)O)NC(=O)[C@H](CCC(=O)O)NC(=O)[C@@H]1CCCN1C(=O)C(CC(C)C)NC(=O)[C@H](CCC(=O)O)NC(=O)[C@H](CCC(=O)O)NC(=O)[C@H](Cc1ccccc1)NC(=O)[C@@H](N)CC(=O)O)C(=O)N[C@@H](C)C(=O)O (stereo in doubt) | < 3 | < 3.70
8 | CC[C@H](C)[C@H](NC(=O)[C@H](CCC(=O)O)NC(=O)[C@H](CCC(=O)O)NC(=O)[C@H](Cc1ccccc1)NC(=O)[C@@H](N)CC(=O)O)C(=O)N1CCC[C@H]1C(=O)N[C@@H](CCC(=O)O)C(=O)N[C@@H](CCC(=O)O)C(=O)N[C@@H](Cc1ccc(OS(=O)(=O)O)cc1)C(=O)N[C@@H](C)C(=O)N[C@@H](CCC(N)=O)C(=O)O (H-DFEEIPEE[sY]AQ-OH) | < 3 | < 3.70
9 | CC[C@H](C)[C@H](NC(=O)[C@H](CCC(=O)O)NC(=O)[C@H](CCC(=O)O)NC(=O)[C@H](CC(C)C)NC(=O)[C@@H](N)CC(=O)O)C(=O)N1CCC[C@H]1C(=O)N[C@@H](CCC(=O)O)C(=O)N[C@@H](CCC(=O)O)C(=O)N[C@@H](Cc1ccc(OS(=O)(=O)O)cc1)C(=O)N[C@@H](CC(C)C)C(=O)N[C@@H](CCC(N)=O)C(=O)O (H-DLEEIPEE[sY]LQ-OH) | < 2 | < 3.70

Molecules with a higher pIC50 (Prothrombin), results first:

Row | Relative potency (Prothrombin (Bos taurus)) | pIC50 (Prothrombin) | SMILES
10 | 26 | 4.57 | CC[C@H](C)[C@H](NC(=O)[C@H](CCC(=O)O)NC(=O)[C@H](CCC(=O)O)NC(=O)[C@H](Cc1ccccc1)NC(=O)[C@H](CC(=O)O)NC(=O)CN)C(=O)N[C@H](C)C(=O)N[C@@H](CCC(=O)O)C(=O)N[C@@H](CCC(=O)O)C(=O)N[C@@H](Cc1ccc(OS(=O)(=O)O)cc1)C(=O)N[C@@H](CC(C)C)C(=O)N[C@@H](CCC(N)=O)C(=O)O
11 | 38 | 4.73 | CC[C@H](C)[C@H](NC(=O)[C@H](CCC(=O)O)NC(=O)[C@H](CCC(=O)O)NC(=O)[C@H](Cc1ccccc1)NC(=O)[C@@H](N)CC(=O)O)C(=O)N1CCC[C@H]1C(=O)N[C@@H](C)C(=O)N[C@@H](CCC(=O)O)C(=O)N[C@@H](Cc1ccc(OS(=O)(=O)O)cc1)C(=O)N[C@@H](CC(C)C)C(=O)N[C@@H](CCC(N)=O)C(=O)O (H-DFEEIPAE[sY]LQ-OH)
12 | 41 | 4.76 | CC[C@H](C)[C@H](NC(=O)[C@H](CCC(=O)O)NC(=O)[C@H](CCC(=O)O)NC(=O)[C@H](Cc1ccccc1)NC(=O)[C@H](CC(=O)O)NC(=O)CN)C(=O)N(C)CC(=O)N[C@@H](CCC(=O)O)C(=O)N[C@@H](CCC(=O)O)C(=O)N[C@@H](Cc1ccc(OS(=O)(=O)O)cc1)C(=O)N[C@@H](CC(C)C)C(=O)N[C@@H](CCC(N)=O)C(=O)O (H-GDFEEI[Sar]EE[sY]LQ-OH)
13 | 52 | 4.87 | CC[C@H](C)[C@H](NC(=O)[C@H](CCC(=O)O)NC(=O)[C@H](CCC(=O)O)NC(=O)[C@H](Cc1ccccc1)NC(=O)[C@@H](N)CC(=O)O)C(=O)N1CCC[C@H]1C(=O)N[C@@H](CCC(=O)O)C(=O)N[C@@H](CCC(=O)O)C(=O)N[C@@H](C)C(=O)N[C@@H](CC(C)C)C(=O)N[C@@H](CCC(N)=O)C(=O)O (H-DFEEIPEEALQ-OH)
14 | 53 | 4.88 | CC[C@H](C)[C@H](NC(=O)[C@H](C)NC(=O)[C@H](CCC(=O)O)NC(=O)[C@H](Cc1ccccc1)NC(=O)[C@@H](N)CC(=O)O)C(=O)N1CCC[C@H]1C(=O)N[C@@H](CCC(=O)O)C(=O)N[C@@H](CCC(=O)O)C(=O)N[C@@H](Cc1ccc(OS(=O)(=O)O)cc1)C(=O)N[C@@H](CC(C)C)C(=O)N[C@@H](CCC(N)=O)C(=O)O (H-DFEAIPEE[sY]LQ-OH)
15 | 86 | 5.08 | CC(C)C[C@H](NC(=O)[C@H](Cc1ccc(OS(=O)(=O)O)cc1)NC(=O)[C@H](CCC(=O)O)NC(=O)[C@H](CCC(=O)O)NC(=O)[C@@H]1CCCN1C(=O)[C@H](CC(C)C)NC(=O)[C@H](CCC(=O)O)NC(=O)[C@H](CCC(=O)O)NC(=O)[C@H](Cc1ccccc1)NC(=O)[C@H](CC(=O)O)NC(=O)CN)C(=O)N[C@@H](CCC(N)=O)C(=O)O (H-GDFEELPEE[sY]LQ-OH)
16 | 215 | 5.48 | CC[C@H](C)[C@H](NC(=O)[C@H](CCC(=O)O)NC(=O)[C@H](CCC(=O)O)NC(=O)[C@H](Cc1ccc(O)cc1)NC(=O)[C@H](CC(=O)O)NC(=O)CN)C(=O)N1CCC[C@H]1C(=O)N[C@@H](CCC(=O)O)C(=O)N[C@@H](CCC(=O)O)C(=O)N[C@@H](Cc1ccc(OS(=O)(=O)O)cc1)C(=O)N[C@@H](CC(C)C)C(=O)N[C@@H](CCC(N)=O)C(=O)O (H-GDYEEIPEE[sY]LQ-OH)
17 | – | 5.80 | CC[C@H](C)[C@H](NC(=O)[C@H](CCC(=O)O)NC(=O)[C@H](CCC(=O)O)NC(=O)[C@H](Cc1ccccc1)NC(=O)[C@H](CC(=O)O)NC(=O)CNC(=O)[C@H](CC(=O)O)NC(=O)[C@H](CC(N)=O)NC(=O)[C@H](Cc1cnc[nH]1)NC(=O)[C@H](CO)NC(=O)[C@H](CCC(N)=O)NC(=O)[C@@H]1CCCN1C(=O)[C@H](CCCCN)NC(=O)[C@@H]1CCCN1C(=O)[C@@H](NC(C)=O)[C@@H](C)O)C(=O)N1CCC[C@H]1C(=O)N[C@@H](CCC(=O)O)C(=O)N[C@@H](CCC(=O)O)C(=O)N[C@@H](Cc1ccc(OS(=O)(=O)O)cc1)C(=O)N[C@@H](CC(C)C)C(=O)N[C@@H](CCC(N)=O)C(=O)O
